# Measured values from patent publication EP0118867A2, “Substituted 4,10-dihydro-10-oxothieno benzoxepins, a method of preparing the same and intermediate thereof and their use as medicaments” (HOECHST-ROUSSEL PHARMACEUTICALS INCORPORATED, priority 1983, dated 1984).
# Where two headings read alike, the source gives them in different places.
# Key:
# [1] = test system: carrageenin induced rat paw edema; experiment: carrageenin induced rat paw edema anti-inflammatory assay; type: in vivo; conditions: for inhibition at 20 mg/kg: read-out: Time Response at 20 mg/kg % Inhibition; for ED50: po; for inhibition at 25 mg/kg: read-out: Time Response at 25 mg/kg % Inhibition
# Source text: The compounds of the present invention are useful as anti-inflammatory agents due to their ability to suppress inflammation in mammals. […] Exptl. Biol. Med., III 544 (1962), J. Pharmacol. Exp. 141 […]] .
# [2] = test system: 2-phenyl-1,4-benzoquinone-induced writhing; experiment: 2-phenyl-1,4-benzoquinone-induced writhing test (analgesia); type: in vivo, mice; conditions: Mus musculus, po
# Source text: Compounds of the present invention are also useful as analgesic agents due to their ability to alleviate pain in mammals. […] Exptl. Biol. Med., 95, 729 (1957)].
# [3] = pretreatment 6 hrs, read-out: ED50
# [4] = analgesic data, read-out: ED50 (p.o.)
SMILES,inhibition at 20 mg/kg ([1]; pretreatment time 2 hrs.),inhibition at 20 mg/kg ([1]; pretreatment time 6 hrs),inhibition at 20 mg/kg ([1]; pretreatment time 24 hrs),"ED50 [2, 4]",inhibition at 20 mg/kg ([1]; pretreatment time 18 hrs),further results
"COC(=O)CCCc1ccc2c(c1)C(=O)c1sccc1CO2 [4-(4,10-Dihydro-10-oxothieno[3,2-c][1]benzoxepin-8-yl)-butyric acid methyl ester]",24%,54%,16%,10.8 mg/kg,,"inhibition at 20 mg/kg ([1]; pretreatment time 8 hrs): 62%; ED50 [1, 3]: 10.3 mg/kg"
"O=C(CCCc1ccc2c(c1)C(=O)c1sccc1CO2)OCC(O)CO (racemic) [1-[(4,10-Dihydro-10-oxothieno[3,2-c][1]-benzoxepin-8-yl)-4-butyryl] glyceride]",,,,9.4 mg/kg,,
"CC(CCC(=O)O)c1ccc2c(c1)C(=O)c1sccc1CO2 (racemic) [(±)-4-(4,10-Dihydro-10-oxothieno[3,2-c][1]benzoxepin-8-yl)pentanoic acid]",23%,,,,,inhibition at 20 mg/kg ([1]; pretreatment time 1 hr.): 25%; inhibition at 20 mg/kg ([1]; pretreatment time 4 hrs): 28%
"CCOC(=O)CCCc1ccc2c(c1)C(=O)c1sccc1CO2 [Ethyl 4-[4,10-dihydro-10-oxothieno[3,2-c][1]benzoxepin-8-yl]butyrate]",40%,48%,22%,8.2 mg/kg,15%,
"O=C(O)CCCc1ccc2c(c1)C(=O)c1sccc1CO2 [4-(4,10-dihydro-10-oxothieno[3,2-c][1]benzoxepin-8-yl)-butyric acid]",,,,,,"inhibition at 25 mg/kg ([1]; pretreatment time 0.5 hr.): 49%; inhibition at 25 mg/kg ([1]; pretreatment time 1 hr): 52%; inhibition at 25 mg/kg ([1]; pretreatment time 2 hrs.): 79%; inhibition at 25 mg/kg ([1]; pretreatment time 3 hrs): 94%; inhibition at 25 mg/kg ([1]; pretreatment time 4 hrs): 95%; inhibition at 25 mg/kg ([1]; pretreatment time 6 hrs): 67%; inhibition at 25 mg/kg ([1]; pretreatment time 8 hrs): 47%; ED50 ([1]; 1 h, p.o., pretreatment 60 min, read-out: ED50): 77.9 mg/kg"
"CC(C)(C)OC(=O)CCCc1ccc2c(c1)C(=O)c1sccc1CO2 [t-Butyl 4-[4,10-dihydro-10-oxothieno-[3,2-c][1]benzoxepin-8-yl]butyrate]",49%,,,,,inhibition at 20 mg/kg ([1]; pretreatment time 1 hr.): 42%; inhibition at 20 mg/kg ([1]; pretreatment time 4 hrs): 43%
"CC1=C(CC(=O)O)c2cc(F)ccc2/C1=C\c1ccc([S+](C)[O-])cc1 (stereo not shown) [sulindac, reference compound]",,,,,,"ED50 ([1]; in a similar test, read-out: anti-inflammatory ED50): 10.7 mg/kg; ED50 ([2]; in a similar test, read-out: analgesic ED50): 6.2 mg/kg"
"CC1(C)OCC(COC(=O)CCCc2ccc3c(c2)C(=O)c2sccc2CO3)O1 (racemic) [(±)[2,2-Dimethyl-1,3-dioxolan-4-yl]methyl 4-[4,10-dihydro-10-oxothieno[3,2-c][1]benzoxepin-8-yl]butyrate]",20%,61%,41%,11.2 mg/kg,32%,"ED50 [1, 3]: 14.5 mg/kg"
"CC(C)OC(=O)CCCc1ccc2c(c1)C(=O)c1sccc1CO2 [4-(4,10-Dihydro-10-oxothieno[3,2-c][1]benzoxepin-8-yl)-butyric acid isopropyl ester]",31%,71%,26%,8.5 mg/kg,57%,"ED50 ([1]; pretreatment 2 hrs, estimated, read-out: Estimated ED50): 21.8 mg/kg"
